Key:
[1] = test system: HDM-induced atopic dermatitis mice; test: House dust mite (HDM) atopic dermatitis mouse model, dermatitis score; assay type: in vivo, Nc/Nga mice; conditions: topical or oral, 10 days after administration, vs control group
From the text: Nc/Nga mice (Supplier: Central Animal Laboratory, South Korea, Male, 8 weeks old) were used, with 8 mice per group. The experimental animals were allowed free access to Purina Nestle feed (Switzerland) and water. The mice were shaved using clippers and depilatory cream one day (day 0) before applying Df cream (Dermatophagoides farina cream, Biostir AD, Biostir Incorporation). Df cream was applied to the mouse dorsal area twice a week for 5 weeks to induce atopic dermatitis. After confirming lesions in all mice, compound 27 of the present invention was administered topically or orally for 3 weeks (21 days) from 2 weeks after Df cream application. For topical administration, compound 27 was mixed with 100% ethanol to achieve concentrations of 0.3%, 1%, or 3%, and applied once daily. It was applied to both ears (25 μL each) and the dorsal area (70 μL). 100% ethanol was used as the topical vehicle. For oral administration, compound 27 was administered at doses of 25 mpk (once daily, QD), 50 mpk (QD), or 10 mpk (twice daily, BID). […]
Skin indicators were recorded through visual observation once a week (on days 0, 7, 14, 21, 28, and 36). […] Each item was scored as follows: no symptoms (0 points), mild symptoms (1 point), moderate symptoms (2 points), and severe symptoms (3 points). The total score was calculated by summing up scores for all items.

[2] = test system: HDM-induced atopic dermatitis mice; test: HDM (Df cream) atopic dermatitis mouse model, skin-specific memory T cell study; assay type: in vivo, Nc/Nga mice
From the text: Nc/Nga mice (purchased from Central Laboratory Animal, male, 6 weeks old) were used, with 2 mice per group. The experimental animals were allowed to freely access to food and water. Mice were shaved using clippers and depilatory cream before the application of Df cream. Df cream (dermatophagoides farina cream) (Biostir AD, Biostir Incorporation) was applied to the dorsal area of the mice 3 times a week for 4 weeks to induce atopic dermatitis. After confirming lesions induced in all mice, compound 27 of the present invention was applied topically to the skin three times a week for three weeks starting four weeks after the Df cream treatment. In contrast to other examples, this example excluded the simultaneous application of the test drug (compound 27 of the present invention) and the atopic dermatitis-inducing agent during the induction period. The compound of the present invention (8 g/mL and […]) was applied to the skin in a volume of 100 μL. As a positive control, 0.1% dexamethasone was topically applied to the mouse skin for comparison.
Erythema, hemorrhage, wounds, dryness, swelling, and shedding in mice were observed visually and compared using the SCORAD score. […] FIG. 12 graphically represents the changes in the atopic dermatitis mouse model's skin scores due to the treatment with each test substance (Wilcoxon-signed rank test; P<0.05 with statistically significant three mice were examined from each group).
A mouse IgE ELISA Kit (BioLegend, San Diego, CA, USA) and a mouse DF-specific IgE ELISA Kit (BioLegend, San Diego, CA, USA) were used according to the manufacturer's instructions to measure IgE in mouse serum and mouse DF-specific IgE. Changes in the levels of total IgE and DF-specific IgE in the serum were presented in FIGS. 13 (a) and (b), respectively.
Skin tissue changes were examined using Hematoxylin and Eosin (H&E) staining (refer to FIG. 14) (Data are shown as mean±standard deviation (SD). ** P<0.01, * P<0.05). Additionally, changes in eosinophils and mouse epidermal thickness were measured (see FIG. 14).
The results of the analysis of T cell fractions in the skin of atopic dermatitis mouse models treated with compound 27 of the present invention are presented in FIGS. 16 and 17 (data are shown as mean±standard deviation (SD). ** P<0.01, * P<0.05).

Structure (SMILES): CCC(NC)C(=O)NCc1ccc(OCc2ccc(C(F)(F)F)cc2)cc1 (racemic) [Compound 27, (R)/(S)-2-(methylamino)-N-(4-((4-trifluoromethyl)benzyl)oxy)benzyl)butanamide]
- improvement of skin lesions (Modified SCORAD score) [1]: superior effect
- proportion of skin-specific T cells (CD3+, CD4+, CD69+, CD103+) ([2]; FACS of mouse skin, 16 g/mL, 8 g/mL): concentration-dependent significant decrease
- numbers of CD69+ T cells and CD103+ T cells ([2]; FACS of mouse skin, vs 0.1% dexamethasone): statistically significant decrease
- eosinophil count in skin tissue ([2]; H&E staining, topical): concentration-dependent decrease
- epidermal thickness ([2]; H&E staining, with increasing drug concentration): appeared to thin
- atopic dermatitis symptoms (skin scores, FIG. 12) ([2]; […], 8 g/mL topical): improved atopic dermatitis symptoms in a concentration-dependent manner
- erythema, hemorrhage, dryness, wounds, swelling and shedding (visual, SCORAD) ([2]; topical, three times a week for three weeks, compound vs 0.1% dexamethasone positive control): significant reduction

Reference: US20250205195A1, “BENZYLOXY-BENZYLAMINYL AMINO ACID DERIVATIVE FOR ADJUSTING TSLP/TSLPR SIGNAL TRANSMISSION” (AMTIXBIO CO., LTD., priority 2021, published 2025)
